Measurements reported in US9751887B2, “Imidazo[1,2-b]pyridazine derivatives as kinase inhibitors” (Daiichi Sankyo Company, Limited, priority 2012, dated 2017).

Legend:
NTRK3 = molecular target: T1, NTRK3 (Homo sapiens, UniProt Q16288); test: NTRK kinase enzyme inhibitory activity evaluation, NTRK3; assay type: biochemical; details: FL-Peptide 27 substrate, ATP Km=32 μM, three separate measurements
T1 construct: purchased Carna Biosciences 08-197
Protocol: (§1) NTRK1, NTRK2, and NTRK3 kinase solutions were each prepared. […]; Next, a substrate reaction solution was prepared.
(§2) Subsequently, a reaction stop solution was prepared. The composition is as follows: 100 mM HEPES (pH 7.4), 0.015% Brij-35, 40 mM EDTA, and 0.1% Coating Reagent 3 (Caliper Life Sciences #760050).
(§3) The NTRK1, NTRK2, and NTRK3 kinase solutions were each added at a concentration of 19 μL/well to a 96-well plate. Each compound for evaluation dissolved in DMSO to achieve each final concentration was added to the plate, mixed using a plate mixer, and then preincubated at room temperature for 20 minutes. […] Then, the reaction stop solution was added thereto at a concentration of 40 μL/well. Substrate phosphorylation intensity was measured using EZ Reader II (Caliper Life Sciences). IC50 values were calculated by curve fitting using Microsoft Excel 2010 on the basis of data obtained from three separate measurements.

[1] = test system: HCC78 cells having ROS1 fusion gene; test: HCC78 cell growth assay (CellTiter-Glo); assay type: cell-based; details: Homo sapiens, HCC78, 72 h, 72 hours culture, 2% FBS medium, luminescence, four separate measurements; read-out: growth inhibitory effect on HCC78 cells having ROS1 fusion gene IC50
NTRK1 = molecular target: T2, NTRK1 (Homo sapiens, UniProt P04629); test: NTRK kinase enzyme inhibitory activity evaluation, NTRK1; assay type: biochemical; details: FL-Peptide 27 substrate, ATP Km=33 μM, three separate measurements
T2 construct: purchased Carna Biosciences 08-186
Protocol: as §1, §2, §3

ROS1 [2] = molecular target: T3, ROS1 (Homo sapiens, UniProt P08922); test: ROS1 autophosphorylation inhibitory activity evaluation (ADP-Glo); assay type: biochemical; details: 200 nM inactive ROS1, ATP 1 mM, 25° C. 1.5 hours, ADP generated, four separate measurements
T3 construct: purchased Carna Biosciences 08-163
Summary of the method: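 IC50 was derived by curve fitting of ADP output measured with ADP-Glo reagents. The output reflects ROS1 self-phosphorylation over 1.5 hours at 25° C. Buffer was HEPES pH 7.5 with MgCl2, Brij-58 and DTT, and ATP was 1 mM final.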

NTRK2 = molecular target: T4, NTRK2 (Homo sapiens, UniProt Q16620); test: NTRK kinase enzyme inhibitory activity evaluation, NTRK2; assay type: biochemical; details: FL-Peptide 27 substrate, ATP Km=63 μM, three separate measurements
T4 construct: purchased Carna Biosciences 08-187
Protocol: as §1, §2, §3

ROS1 [3] = molecular target: T3, ROS1; test: ROS1 kinase inhibitory activity evaluation (mobility shift, EZ Reader II); assay type: biochemical; details: ROS1 25 pg/μL, FL-Peptide 22 substrate, three separate measurements
Protocol: Next, a substrate reaction solution was prepared. […] Then, the reaction stop solution was added thereto at a concentration of 40 μL/well. Substrate phosphorylation intensity was measured using EZ Reader II (Caliper Life Sciences).

T2 sequence (P04629 33-796): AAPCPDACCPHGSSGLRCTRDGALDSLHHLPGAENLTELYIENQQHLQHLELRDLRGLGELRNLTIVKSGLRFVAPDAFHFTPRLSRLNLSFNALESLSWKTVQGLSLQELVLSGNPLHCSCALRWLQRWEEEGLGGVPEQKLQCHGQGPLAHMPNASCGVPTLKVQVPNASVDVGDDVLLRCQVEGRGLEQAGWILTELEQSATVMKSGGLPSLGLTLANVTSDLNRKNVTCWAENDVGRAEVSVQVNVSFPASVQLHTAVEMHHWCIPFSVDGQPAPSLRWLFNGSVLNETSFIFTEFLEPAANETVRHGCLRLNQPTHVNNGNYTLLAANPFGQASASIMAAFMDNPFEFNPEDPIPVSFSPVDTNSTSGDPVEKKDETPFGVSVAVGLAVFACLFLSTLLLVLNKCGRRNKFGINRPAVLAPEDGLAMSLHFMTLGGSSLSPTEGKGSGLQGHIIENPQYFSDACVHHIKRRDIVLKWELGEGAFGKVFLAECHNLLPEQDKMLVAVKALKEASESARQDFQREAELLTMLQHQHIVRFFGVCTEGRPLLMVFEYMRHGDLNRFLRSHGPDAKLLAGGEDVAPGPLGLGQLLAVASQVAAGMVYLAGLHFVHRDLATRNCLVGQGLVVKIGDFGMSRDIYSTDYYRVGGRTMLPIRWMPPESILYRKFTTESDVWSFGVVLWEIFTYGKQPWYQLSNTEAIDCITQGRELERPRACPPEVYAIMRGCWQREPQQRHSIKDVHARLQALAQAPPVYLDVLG
T1 sequence (Q16288 32-839): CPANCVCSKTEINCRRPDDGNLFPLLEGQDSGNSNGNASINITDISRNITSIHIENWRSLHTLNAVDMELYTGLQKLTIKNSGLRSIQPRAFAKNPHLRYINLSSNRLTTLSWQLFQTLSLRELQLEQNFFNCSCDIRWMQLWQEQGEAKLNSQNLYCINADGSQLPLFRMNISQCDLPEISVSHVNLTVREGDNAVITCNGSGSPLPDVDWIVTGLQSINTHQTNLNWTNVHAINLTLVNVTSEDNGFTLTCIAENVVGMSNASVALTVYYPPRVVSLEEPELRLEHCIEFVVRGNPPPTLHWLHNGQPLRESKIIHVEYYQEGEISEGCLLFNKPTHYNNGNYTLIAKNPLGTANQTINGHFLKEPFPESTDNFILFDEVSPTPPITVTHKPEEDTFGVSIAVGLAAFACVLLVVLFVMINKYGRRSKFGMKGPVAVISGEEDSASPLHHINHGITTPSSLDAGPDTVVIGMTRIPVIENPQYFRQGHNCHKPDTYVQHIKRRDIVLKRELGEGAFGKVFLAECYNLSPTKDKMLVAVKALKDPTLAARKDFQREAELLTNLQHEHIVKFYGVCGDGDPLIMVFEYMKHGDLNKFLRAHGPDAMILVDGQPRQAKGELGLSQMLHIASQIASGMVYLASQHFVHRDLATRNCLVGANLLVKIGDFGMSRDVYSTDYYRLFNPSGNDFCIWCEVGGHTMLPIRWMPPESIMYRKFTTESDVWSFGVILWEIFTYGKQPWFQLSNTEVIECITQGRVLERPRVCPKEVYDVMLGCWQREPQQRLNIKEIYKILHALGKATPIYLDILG
T4 sequence (Q16620 32-822): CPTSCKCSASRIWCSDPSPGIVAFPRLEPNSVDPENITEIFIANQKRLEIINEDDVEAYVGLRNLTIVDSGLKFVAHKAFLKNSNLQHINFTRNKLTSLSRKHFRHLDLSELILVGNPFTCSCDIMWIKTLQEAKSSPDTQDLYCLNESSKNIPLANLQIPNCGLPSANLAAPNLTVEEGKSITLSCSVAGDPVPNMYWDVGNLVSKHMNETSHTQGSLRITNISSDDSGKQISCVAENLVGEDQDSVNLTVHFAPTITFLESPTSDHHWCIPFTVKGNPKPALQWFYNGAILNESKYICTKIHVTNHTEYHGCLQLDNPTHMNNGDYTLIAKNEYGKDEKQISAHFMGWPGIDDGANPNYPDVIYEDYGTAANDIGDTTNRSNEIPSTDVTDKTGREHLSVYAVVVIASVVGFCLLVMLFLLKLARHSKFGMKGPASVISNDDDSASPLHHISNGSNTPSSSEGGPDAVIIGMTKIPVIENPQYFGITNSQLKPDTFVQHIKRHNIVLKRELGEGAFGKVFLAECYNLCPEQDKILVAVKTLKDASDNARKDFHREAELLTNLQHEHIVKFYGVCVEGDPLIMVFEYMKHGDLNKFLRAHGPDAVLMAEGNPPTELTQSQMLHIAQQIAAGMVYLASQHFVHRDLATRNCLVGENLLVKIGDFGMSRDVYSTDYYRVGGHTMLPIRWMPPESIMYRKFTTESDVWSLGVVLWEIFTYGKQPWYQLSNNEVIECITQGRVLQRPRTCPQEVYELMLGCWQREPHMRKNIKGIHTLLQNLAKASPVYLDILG
T3 sequence (P08922 28-2347): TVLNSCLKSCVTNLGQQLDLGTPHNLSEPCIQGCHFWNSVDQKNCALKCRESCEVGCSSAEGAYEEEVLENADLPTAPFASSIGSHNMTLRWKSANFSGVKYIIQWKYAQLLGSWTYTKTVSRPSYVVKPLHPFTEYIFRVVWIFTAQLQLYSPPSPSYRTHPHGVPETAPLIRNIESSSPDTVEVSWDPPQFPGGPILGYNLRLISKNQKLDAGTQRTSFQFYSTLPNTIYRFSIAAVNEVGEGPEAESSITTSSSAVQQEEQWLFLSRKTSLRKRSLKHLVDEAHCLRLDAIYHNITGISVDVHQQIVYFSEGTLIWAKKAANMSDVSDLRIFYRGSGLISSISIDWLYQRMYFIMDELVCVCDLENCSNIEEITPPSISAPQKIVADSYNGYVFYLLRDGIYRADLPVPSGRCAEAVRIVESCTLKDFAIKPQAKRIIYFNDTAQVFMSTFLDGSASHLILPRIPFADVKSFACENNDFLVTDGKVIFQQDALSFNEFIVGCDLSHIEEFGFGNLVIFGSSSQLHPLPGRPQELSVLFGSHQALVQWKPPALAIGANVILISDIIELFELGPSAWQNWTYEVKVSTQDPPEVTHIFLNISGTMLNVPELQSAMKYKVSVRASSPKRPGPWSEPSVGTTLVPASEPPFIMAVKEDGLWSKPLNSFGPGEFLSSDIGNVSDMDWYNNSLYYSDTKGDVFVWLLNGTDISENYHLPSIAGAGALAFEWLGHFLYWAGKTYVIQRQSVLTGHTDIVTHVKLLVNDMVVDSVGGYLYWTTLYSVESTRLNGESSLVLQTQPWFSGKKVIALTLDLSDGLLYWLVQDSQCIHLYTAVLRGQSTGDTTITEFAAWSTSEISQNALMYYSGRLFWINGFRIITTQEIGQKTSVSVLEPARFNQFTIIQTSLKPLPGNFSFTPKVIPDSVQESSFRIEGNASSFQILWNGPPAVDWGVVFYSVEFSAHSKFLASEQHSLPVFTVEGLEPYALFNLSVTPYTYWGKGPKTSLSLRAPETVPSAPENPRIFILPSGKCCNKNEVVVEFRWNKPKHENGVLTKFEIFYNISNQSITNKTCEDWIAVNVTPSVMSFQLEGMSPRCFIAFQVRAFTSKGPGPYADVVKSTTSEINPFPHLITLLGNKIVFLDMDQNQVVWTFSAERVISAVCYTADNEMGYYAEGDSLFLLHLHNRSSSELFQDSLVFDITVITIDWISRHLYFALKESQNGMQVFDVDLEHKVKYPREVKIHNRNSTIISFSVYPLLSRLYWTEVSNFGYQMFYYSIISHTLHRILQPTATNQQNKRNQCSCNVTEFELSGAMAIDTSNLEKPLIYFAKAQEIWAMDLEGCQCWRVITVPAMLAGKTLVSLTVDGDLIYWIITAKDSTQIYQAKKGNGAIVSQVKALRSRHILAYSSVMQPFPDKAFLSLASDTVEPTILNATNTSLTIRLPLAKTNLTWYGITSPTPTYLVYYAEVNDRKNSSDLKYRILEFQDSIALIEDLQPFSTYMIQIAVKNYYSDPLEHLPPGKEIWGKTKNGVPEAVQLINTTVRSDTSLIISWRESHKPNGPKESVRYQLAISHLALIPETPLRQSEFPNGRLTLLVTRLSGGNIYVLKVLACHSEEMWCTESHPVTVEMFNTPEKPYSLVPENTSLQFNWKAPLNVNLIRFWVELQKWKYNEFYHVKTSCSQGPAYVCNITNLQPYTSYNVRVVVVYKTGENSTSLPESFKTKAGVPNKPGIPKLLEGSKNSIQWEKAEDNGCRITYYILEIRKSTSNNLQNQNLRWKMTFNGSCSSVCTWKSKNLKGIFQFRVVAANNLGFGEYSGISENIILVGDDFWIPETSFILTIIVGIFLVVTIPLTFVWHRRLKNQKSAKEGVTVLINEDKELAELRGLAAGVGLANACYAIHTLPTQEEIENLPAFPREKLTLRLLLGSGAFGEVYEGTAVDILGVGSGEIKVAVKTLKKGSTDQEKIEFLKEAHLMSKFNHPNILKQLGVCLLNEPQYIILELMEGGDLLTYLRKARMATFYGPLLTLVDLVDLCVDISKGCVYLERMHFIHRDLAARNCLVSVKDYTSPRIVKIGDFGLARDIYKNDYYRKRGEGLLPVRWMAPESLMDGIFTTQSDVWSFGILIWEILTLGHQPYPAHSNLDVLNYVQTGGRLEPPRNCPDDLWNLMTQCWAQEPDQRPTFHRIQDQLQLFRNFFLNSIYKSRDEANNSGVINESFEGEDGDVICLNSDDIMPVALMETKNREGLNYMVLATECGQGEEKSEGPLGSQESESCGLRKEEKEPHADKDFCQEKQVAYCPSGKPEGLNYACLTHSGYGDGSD

IC50 (NTRK3) [µM] | IC50 [1] [µM] | IC50 (NTRK1) [µM] | IC50 (ROS1 [2]) [µM] | IC50 (NTRK2) [µM] | IC50 (ROS1 [3]) [µM] | SMILES
< 0.005 | 0.02 to 0.1 | < 0.005 | < 0.02 | < 0.01 | 0.001 to 0.01 | COc1cc(N2C[C@@H](N)CC2=O)ccc1-c1cnc2ccc(N(C)Cc3cccc(F)c3)nn12 [Example 85, (4S)-4-Amino-1-[4-[6-[(3-fluorophenyl)methyl-methylamino]imidazo[1,2-b]pyridazin-3-yl]-3-methoxyphenyl]pyrrolidin-2-one]
< 0.005 | < 0.02 | < 0.005 | < 0.02 | < 0.01 | < 0.001 | CNCCOc1ccc(-c2cnc3ccc(N[C@H](C)c4cccc(F)c4)nn23)cc1 [Example 29, N-[(1R)-1-(3-Fluorophenyl)ethyl]-3-[4-[2-(methylamino)ethoxy]phenyl]imidazo[1,2-b]pyridazin-6-amine]
< 0.005 | 0.02 to 0.1 | < 0.005 | < 0.02 | < 0.01 | < 0.001 | C[C@@H](Nc1ccc2ncc(-c3ccc(OC[C@@H]4CCCN4)cc3)n2n1)c1cccc(F)c1 [Example 24, N-[(1R)-1-(3-Fluorophenyl)ethyl]-3-[4-[[(2S)-pyrrolidin-2-yl]methoxy]phenyl]imidazo[1,2-b]pyridazin-6-amine]
< 0.005 | < 0.02 | < 0.005 | < 0.02 | < 0.01 | < 0.001 | C[C@@H](Nc1ccc2ncc(-c3ccc(N4C[C@@H](N)CC4=O)cc3)n2n1)c1cccc(F)c1 [Example 90, (4S)-4-Amino-1-[4-[6-[[(1R)-1-(3-fluorophenyl)ethyl]amino]imidazo[1,2-b]pyridazin-3-yl]phenyl]pyrrolidin-2-one]
0.005 to 0.01 | 0.02 to 0.1 | 0.01 to 0.015 | < 0.02 | 0.02 to 0.025 | < 0.001 | C[C@@H](Oc1ccc2ncc(-c3ccc(N4C[C@@H](N)CC4=O)nc3)n2n1)c1cccc(F)c1 [Example 127, (4S)-4-Amino-1-[5-[6-[(1R)-1-(3-fluorophenyl)ethoxy]imidazo[1,2-b]pyridazin-3-yl]-2-pyridyl]pyrrolidin-2-one]
